Assay [1] relates to KRAS G12D mutant AGS cells. The assay is described as follows: Proliferation inhibition of AGS cells, CellTiter-Glo assay. It is filed as cell-based, human. The following applies: Homo sapiens, AGS, 72 h, 3 days, CTG; read-out: AGS IC50/nM. The essentials: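 AGS cells at 1500 cells/well in F12K + 10% FBS were exposed for 3 days at 37°C to nine 3-fold dilutions from 10 µM top concentration, in duplicate. Viability read by CellTiter-Glo luminescence; IC50 (nM) from dose-response-inhibition fitting.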
(In general: ATP-based viability assays read luminescence as a measure of living cells.)

Assay [2] concerns KRAS G12V mutant NCI-H727 cells. In words: Proliferation inhibition of NCI-H727 cells, 3D CellTiter-Glo assay (Method B). It is filed as cell-based, human. The conditions noted are these: Homo sapiens, NCI-H727, 120 h, Method B; 3D culture with 0.65% methylcellulose, 5 days, CTG; read-out: NCI-H727 IC50/nM. The method, boiled down: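 Cells grown in 3D medium (RPMI-1640, 10% FBS, 0.65% methylcellulose) overnight, then treated 5 days at 37 °C, 5% CO2 with 9 threefold dilutions from 10 µM top working concentration, duplicate wells. CellTiter-Glo luminescence read; IC50 (nM) fitted by dose-response-inhibition equation.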

The next assay deals with Ba/F3-KRAS-G13D. In words: Ba/F3 KRAS-mutant cell proliferation inhibition (CellCounting-Lite 2.0). It counts as cell-based. The conditions noted are these: Mus musculus, BaF3, Ba/F3-KRAS-G13D (KC-1436), 72 h. The text has this:
(§1) This experiment evaluated the proliferation inhibitory activity of the compounds of the present invention against Ba/F3-KRAS mutant cell lines by using the CellCounting-Lite®2.0 method.
(§2) The following materials, reagents, and instruments were used in this experiment: Cells were all obtained from Kangyuan Bochuang Biotechnology (Beijing) Co., Ltd. RPMI-1640 (Hyclone, SH30809.01); fetal bovine serum (FBS) was used. (GIBCO, 10099-141); Phosphate-buffered saline (PBS) (Solarbio, P1020-500); CellCounting-Lite 2.0 Luminescent Cell Viability Assay (Vazyme, DD1101-02); 96-well plate (Absin, abs7016); Multifunctional microplate reader (BMG LABTECH, CLARIOstar® Plus); CO2 incubator (Thermo Scientific, Model 3100 Series).
(§3) All cell lines were cultured in complete medium at 37°C and 5% CO2. Cells in the logarithmic growth phase were harvested and counted using a platelet counter. Cell viability was assessed using the trypan blue exclusion method to ensure a viability of over 90%. Cell density was adjusted using complete medium (RPMI 1640+10% FBS) and then seeded into 96-well cell culture plates at 90 µL per well, for a total of 3000 cells. The cells in the 96-well plates were cultured at 37°C and 5% CO2. A 10-fold drug solution was prepared using complete medium, and then 10 µL of each serially diluted compound was transferred to the corresponding wells of the 96-well cell culture plate, with two replicates for each drug concentration. The cells in the drug-treated 96-well plates were cultured at 37°C and 5% CO2 for 72 h, followed by CellCounting-Lite 2.0 analysis.
(§4) The CellCounting-Lite 2.0 Luminescent Cell Viability Assay reagent was thawed and the cell plate was equilibrated to room temperature for 30 minutes. An equal volume of CellCounting-Lite 2.0 Luminescent Cell Viability Assay solution was added to each well and the plate was shaken on an orbital shaker for 5 minutes to lyse the cells. The cell plate was placed at room temperature for 20 minutes to stabilize the cryo-luminescence signal. The cryo-luminescence values were read and the data were collected.
(§5) Data was analyzed using GraphPad Prism 7.0 software. A nonlinear S-curve regression was used to fit the data to derive the dose-response curve, and the IC50 value was calculated from this curve. [formula]

The subject of the next assay is Ba/F3-KRAS-G 12V. The description is as above. It is filed as cell-based. The following applies: Mus musculus, BaF3, Ba/F3-KRAS-G 12V (KC-1261), 72 h.
Description: as §1, §2, §3, §4, §5

A further assay relates to Ba/F3-KRAS-G12C-Q99L. The assay is described as above. It counts as cell-based. The conditions noted are these: Mus musculus, BaF3, Ba/F3-KRAS-G12C-Q99L (KC-2611), 72 h.
Description: as §1, §2, §3, §4, §5

[3] abbreviates: 0.05uM, read-out: Inhibition rate% @0.05uM.
The mark [4] stands for this setting: 1uM, read-out: Inhibition rate% @1uM.

Structures are written as SMILES.

Broadly, the inhibition is the percentage by which the read-out fell short of the control.

In the case of `CCN1CC/C(=C\F)[C@](C)(COc2nc(N3Cc4c(COC)c(C(=O)N(C)C)nn4CC[C@@H]3C)c3cc(Cl)c(-c4c(F)ccc5sc(N)c(C#N)c45)c(F)c3n2)C1` (single isomer, unassigned) [Example 228A], the IC50 in assay [1] and in assay [2] was < 1.5 nM in each case. Besides, the inhibition at 0.05 µM in the assay with Ba/F3-KRAS-G13D (setting [3]) turned out to be 88.1%; in the assay with Ba/F3-KRAS-G 12V (setting [3]), 99.9%; in the assay with Ba/F3-KRAS-G12C-Q99L (setting [3]), 93.9%. In addition, the inhibition at 1 µM in the assay with Ba/F3-KRAS-G13D (setting [4]) stood at 98.2%; with Ba/F3-KRAS-G 12V (setting [4]) it was 100%; with Ba/F3-KRAS-G12C-Q99L (setting [4]), 98.1%.

The record behind these values is patent publication EP4775577A1, “RAS INHIBITOR” (Tyligand Bioscience (Shanghai) Limited, priority 2023, dated 2025).
